Tests used:
[1] = Photostability of sugammadex sodium solution in glass containers with or without light-cutting film (Example 1, HPLC); type: physicochemical; conditions: for total amount of substances other than sugammadex: n=3
[2] = Formation of sugammadex photodegradant (disulfide, printed ジスルフィド体) on light irradiation (Example 2, HPLC); type: physicochemical; conditions: after light irradiation, n=3
[3] = after light irradiation (1,200,000 lux·h, 280 W·h/m2), UVcut 500 film compared with UVcut 400 film
[4] = after light irradiation (1,200,000 lux·h, 280 W·h/m2), film-wrapped samples (UVcut 400 or UVcut 500), compared with no film wrapping

## O=C([O-])CCSC[C@H]1O[C@@H]2O[C@H]3[C@H](O)[C@@H](O)[C@@H](O[C@H]4[C@H](O)[C@@H](O)[C@@H](O[C@H]5[C@H](O)[C@@H](O)[C@@H](O[C@H]6[C@H](O)[C@@H](O)[C@@H](O[C@H]7[C@H](O)[C@@H](O)[C@@H](O[C@H]8[C@H](O)[C@@H](O)[C@@H](O[C@H]9[C@H](O)[C@@H](O)[C@@H](O[C@H]1[C@H](O)[C@H]2O)O[C@@H]9CSCCC(=O)[O-])O[C@@H]8CSCCC(=O)[O-])O[C@@H]7CSCCC(=O)[O-])O[C@@H]6CSCCC(=O)[O-])O[C@@H]5CSCCC(=O)[O-])O[C@@H]4CSCCC(=O)[O-])O[C@@H]3CSCCC(=O)[O-].[Na+].[Na+].[Na+].[Na+].[Na+].[Na+].[Na+].[Na+] [スガマデクス, octakis(6-S-(2-carboxyethyl)-6-thio)cyclomaltooctaose octasodium salt]
[1]; [3]
  effect of suppressing increase of photodegradation products: 顕著に高かった
  purity of sugammadex: 純度が高く
[1]; [4]
  increase in total amount of substances other than sugammadex: 増大が抑えられており
  residual rate of sugammadex: 残存率が高かった
[1]; after light irradiation (1,200,000 lux·h, 280 W·h/m2), no film wrapping
  total amount of substances other than sugammadex: 5.12%
[1]; before light irradiation, no film wrapping, 100 mg/mL aqueous solution, pH 7-8
  total amount of substances other than sugammadex: 2.14%
[1]; chromatograms before vs after light irradiation, no film wrapping
  photodegradation of sugammadex: 光照射により分解されたことが確認された
[2]; light up to 400 nm cut, relative to sample without film wrapping
  formation of sugammadex disulfoxide (スガマデクスのジスルフィド体 in the source): フィルム包装なしのサンプルの半分程度
[2]; light up to 500 nm cut
  formation of sugammadex disulfoxide (スガマデクスのジスルフィド体 in the source): ほとんど生成されていなかった

Source: JP2022155560A, “スガマデクスの光分解抑制方法” (Fuji Pharma Co Ltd, priority 2021, dated 2022)
